# Results taken from US12617779B2, “Self degradation-type CDK9 inhibitor prodrug and liposome encapsulating same” (Sumitomo Pharma Co., Ltd., priority 2021, dated 2026).
# Assay: Evaluation of conversion rate to active form in buffer solution (Experimental Example 1)
# Assay type: physicochemical
# Conditions: for Production rate of Alvocidib / Residual rate: 37° C., 25 umol/L in buffer solution
# In short: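 25 umol/L cpd, 37° C; 50 mM citrate pH 5.0/5.5, 50 mM phosphate pH 6.0/6.5/7.0/7.4. HPLC at 0–3 h: residual rate and Alvocidib production rate.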
compound,measurement,setting,value
"CN1CC[C@H](c2c(OC(=O)N(Cc3ccccc3)CC3CCCCN3)cc(O)c3c(=O)cc(-c4ccccc4Cl)oc23)[C@H](O)C1 (stereo partly drawn) [Example 15, 2-(2-chlorophenyl)-5-hydroxy-8-[(3S,4R)-3-hydroxy-1-methylpiperidin-4-yl]-4-oxo-4H-1-benzopyran-7-yl benzyl [(piperidin-2-yl)methyl]carbamate]",Production rate of Alvocidib,"pH5.0, 0 hr",1.4%
same,Residual rate,"pH5.0, 0 hr",95.6%
same,Stability in buffer solution at pH 5,"pH 5, 37° C., up to 2 or 3 hours",stable
same,Production rate of Alvocidib,"pH5.0, 0.5 hr",1.9%
same,Residual rate,"pH5.0, 0.5 hr",95.2%
same,Production rate of Alvocidib,"pH5.0, 1 hr",2.6%
same,Residual rate,"pH5.0, 1 hr",94.7%
same,Production rate of Alvocidib,"pH5.0, 2 hr",3.8%
same,Residual rate,"pH5.0, 2 hr",93.5%
same,Production rate of Alvocidib,"pH5.0, 3 hr",4.6%
same,Residual rate,"pH5.0, 3 hr",92.5%
same,Production rate of Alvocidib,"pH5.5, 0 hr",1.4%
same,Residual rate,"pH5.5, 0 hr",95.6%
same,Production rate of Alvocidib,"pH5.5, 0.5 hr",2.8%
same,Residual rate,"pH5.5, 0.5 hr",94.2%
same,Production rate of Alvocidib,"pH5.5, 1 hr",4.5%
same,Residual rate,"pH5.5, 1 hr",92.7%
same,Production rate of Alvocidib,"pH5.5, 2 hr",7.8%
same,Residual rate,"pH5.5, 2 hr",89.5%
same,Production rate of Alvocidib,"pH5.5, 3 hr",9.5%
same,Residual rate,"pH5.5, 3 hr",87.8%
same,Production rate of Alvocidib,"pH6.0, 0 hr",1.5%
same,Residual rate,"pH6.0, 0 hr",95.5%
same,Production rate of Alvocidib,"pH6.0, 0.5 hr",6.2%
same,Residual rate,"pH6.0, 0.5 hr",91.0%
same,Production rate of Alvocidib,"pH6.0, 1 hr",12.4%
same,Residual rate,"pH6.0, 1 hr",84.7%
same,Production rate of Alvocidib,"pH6.0, 2 hr",22.3%
same,Residual rate,"pH6.0, 2 hr",62.8%
same,Production rate of Alvocidib,"pH6.0, 3 hr",25.7%
same,Residual rate,"pH6.0, 3 hr",56.7%
same,Production rate of Alvocidib,"pH6.5, 0 hr",1.9%
same,Residual rate,"pH6.5, 0 hr",94.8%
same,Production rate of Alvocidib,"pH6.5, 0.5 hr",15.1%
same,Residual rate,"pH6.5, 0.5 hr",82.2%
same,Production rate of Alvocidib,"pH6.5, 1 hr",26.1%
same,Residual rate,"pH6.5, 1 hr",56.3%
same,Production rate of Alvocidib,"pH6.5, 2 hr",44.6%
same,Residual rate,"pH6.5, 2 hr",32.9%
same,Production rate of Alvocidib,"pH6.5, 3 hr",52.4%
same,Residual rate,"pH6.5, 3 hr",24.3%
same,Production rate of Alvocidib,"pH7.0, 0 hr",2.8%
same,Residual rate,"pH7.0, 0 hr",94.1%
same,Production rate of Alvocidib,"pH7.0, 0.5 hr",40.7%
same,Residual rate,"pH7.0, 0.5 hr",38.5%
same,Production rate of Alvocidib,"pH7.0, 1 hr",56.9%
same,Residual rate,"pH7.0, 1 hr",7.1%
same,Production rate of Alvocidib,"pH7.0, 2 hr",69.8%
same,Residual rate,"pH7.0, 2 hr",3.8%
same,Production rate of Alvocidib,"pH7.0, 3 hr",69.9%
same,Residual rate,"pH7.0, 3 hr",3.9%
same,Production rate of Alvocidib,"pH7.4, 0 hr",4.8%
same,Residual rate,"pH7.4, 0 hr",92.2%
same,Conversion to Alvocidib at pH 7.4,"pH 7.4, 37° C., up to 3 hours",rapidly converted to Alvocidib
same,Production rate of Alvocidib,"pH7.4, 0.5 hr",54.7%
same,Residual rate,"pH7.4, 0.5 hr",21.1%
same,Production rate of Alvocidib,"pH7.4, 1 hr",67.3%
same,Residual rate,"pH7.4, 1 hr",8.0%
same,Production rate of Alvocidib,"pH7.4, 2 hr",75.2%
same,Residual rate,"pH7.4, 2 hr",3.1%
same,Production rate of Alvocidib,"pH7.4, 3 hr",77.2%
same,Residual rate,"pH7.4, 3 hr",2.9%
